Holding throughout (type): cell-based
The subject of one assay is K562 cells. Kind of assay: AK release bioluminescence assay, K562 cells incubated with ionomycin. Also on record: cytolysis versus control cells at the lowest concentration: dose or concentration left out as unconfirmed. The protocol: (§1) A number of different cell types have been tested for induction of cytotoxicity with soluble agents. Cytolysis is determined after incubation with the agent, when the cell membrane has lost integrity and AK can ‘leak’ out into the surrounding culture medium. The assay is performed by incubating non-microbial (e.g. mammalian) cells, either cell lines or primary cell types including isolated tumour cells, with the agonist(s) of choice. After an appropriate incubation time the cells are simply removed from the incubator and AK activity determined in the culture supernatant. If the cells have been cultured in clear bottomed, white walled plates (Perkin Elmer Life Sciences) in volumes no greater than 100 μl, then the plates are simply placed in a luminometer equipped with injection facilities and 150 μl of AKR added to each of the wells, where an integral reading of light output is measured over 1 second. When using luminometers without injectors the AKR can be added manually preferably using a multichannel pipette. The light output is read as soon after addition of reagent as possible. The increase in light output over the complete medium control is the result of the leakage of AK from damaged cells as a result of incubation with cytolytic inducing substances.
Example 3: Ionomycin is a calcium ionophore that acts as a mobile ion carrier for Ca^2+. We investigated increasing concentrations of this agent on K562 cells. As with the previous examples, the cells were set up in 100 μl volumes in triplicate wells of a 96 well Isoplate™. The concentrations of ionomycin (Sigma) used were […]. Cells were incubated for three hours in the presence of the agent prior to determination of AK activity. The data shown in FIG. 7 are for the 1-second integral reading taken at time 0 using the Wallac MicroBeta Jet.

The subject of another assay is U937 cells. Kind of assay: AK release bioluminescence assay, U937 cells incubated with camptothecin. The protocol:
as §1
Example 2: A second model known to induce secondary necrosis is the incubation of U937 cells (ECACC No: 87010802) with camptothecin (Sigma). The cells were set up in triplicate wells of a white Isoplate™ (Perkin Elmer Life Sciences) at serial doubling dilutions of cells with 1000 nM camptothecin. The cells were then incubated with the drug for 4 hours and AK activity was determined as outlined in example 1. […] In the control cells there was a slight increase in AK activity over the complete medium control, but the increase in the presence of the drug was much greater, nearly 3 fold (2.6).

A further assay relates to Cem-7 cells. Kind of assay: AK (adenylate kinase) release bioluminescence assay, Cem-7 cells incubated with dexamethasone. The protocol:
as §1
Example 1: We have investigated 37 different cell lines and models of apoptosis/necrosis induction. One of the first models investigated for this assay was the incubation of Cem-7 cells with dexamethasone. Two different experiments were performed: one experiment where cells at different cell numbers/well were incubated with one concentration of dexamethasone (500 nM, Sigma) for 48 and 72 hours, and another experiment where cells at 5000/well were incubated with increasing concentrations of the agent (0, 10, 25, 50, 75, 100, 150, 200 nM) for 72 hours. The cell suspensions were incubated in 100 μl in triplicate wells of a 96 well clear-bottomed white walled microtitre plate (Perkin Elmer Isoplate™). At the end of the incubation period the plates were assayed for AK activity using the Wallac Microbeta Jet, with 150 μl of AKR added and the RLUs (1 second integral) read at time 0 and every 5 minutes for 45 minutes. […] At 2500 cells per well the activity had increased by 71% from 15 913 RLUs at 48 hours to 27 266 RLUs at 72 hours.

The mark [1] stands for this setting: camptothecin from 50 to 1000 μM, cells at 2500/well.

Regarding `C[C@H](CCC(=O)O)C[C@H](C)C[C@H](C)C(=O)/C=C(\O)[C@H](C)C[C@H](C)C/C=C/[C@@H](C)[C@@H](O)[C@@H](C)[C@@H](O)C[C@@H]1CC[C@@](C)([C@H]2CC[C@@](C)([C@@H](C)O)O2)O1` [Ionomycin], the “AK activity with all concentrations of the agent” value in the assay with K562 cells (FIG. 7, increasing concentrations of ionomycin) is given as “significant increase in AK activity”. The “effect on AK activity with increasing concentrations” value in the assay on K562 cells (ionomycin 1, 2, 3, 4 and 5 mM, three hours, time 0 reading) was “concentration dependent effect”. The “cytolysis versus control cells at the lowest concentration” value with K562 cells (lowest ionomycin concentration, three hours) was “significant increase in cytolysis”.
As to `CC[C@@]1(O)C(=O)OCc2c1cc1n(c2=O)Cc2cc3ccccc3nc2-1` [camptothecin], the “increase in AK activity in the presence of the drug” value in the assay on U937 cells (1000 nM camptothecin, 4 hours) was 2.6 fold. Further, in the assay on U937 cells (1000 nM camptothecin, 4 hours, serial doubling dilutions of cells), the “cell numbers at which the increase in activity was seen” value was “above 156 /well”. Moreover, in the assay on U937 cells (setting [1]), the “concentration at which cytolysis appears” value was found to be 100 µM and the “enzyme (AK) activity with increasing concentrations” value is reported as “concentration dependent increase in enzyme activity”.
In the assay with Cem-7 cells (200 nM dexamethasone, 72 hours, 5000 cells/well), `C[C@@H]1C[C@H]2[C@@H]3CCC4=CC(=O)C=C[C@]4(C)[C@@]3(F)[C@@H](O)C[C@]2(C)[C@@]1(O)C(=O)CO` [dexamethasone] came in with an AK release of 16900 RLU. Also, the “increase in AK activity from 48 hours to 72 hours” value in the assay with Cem-7 cells (500 nM dexamethasone, 2500 cells per well) is reported as 71%. The AK activity in the assay with Cem-7 cells (500 nM dexamethasone, 48 hours, 2500 cells per well) was 15 913 RLUs; in the assay with Cem-7 cells (500 nM dexamethasone, 72 hours, 2500 cells per well), 27 266 RLUs.

The values are drawn from US20030008338A1, “Assay methods and kits therefor” (LumiTech (UK) Limited, priority 2000, published 2003).
